In patent US9682976B2, “Protein kinase C inhibitors and uses thereof” (Rigel Pharmaceuticals, Inc., priority 2012, dated 2017):
Structures can show the parent of a compound that is named as a salt.

The molecules below were run on PKC mediated IL-2 production (assay: IL-2 ELISA, human primary T cell, anti CD3+CD28+). Details: Homo sapiens, T-cell, 24 h, human primary T cells stimulated with αCD3 and αCD28, 24 hours.
Format: cell-based
Protocol: Compounds 1-328 were tested in a whole cell functional assay for PKC mediated IL-2 production as follows. Human primary T cell isolation and culture: Human primary T cells were prepared as follows. Whole blood was obtained from a healthy volunteer, mixed 1:1 with PBS, layered on to Ficoll Hypaque (Amersham Pharmacia Biotech, Piscataway, N.J., Catalog #17-1440-03) in 2:1 blood/PBS:ficoll ratio and centrifuged for 30 minutes at 4° C. at 1750 rpm. The cells at the serum: ficoll interface were recovered and washed twice with 5 volumes of PBS. These freshly isolated human peripheral blood mononuclear cells were cultured in Yssel's medium containing 40 U/ml IL2 in a flask pre-coated with […] αCD3 and 5 μg/ml αCD28 (Anti-Human CD3, BD Pharmingen Catalog #555336, Anti-Human CD28, Beckman Coulter Catalog #IM1376). The cells were stimulated for 3-4 days, then transferred to a fresh flask and maintained in RPMI (RPMI-1640 with L-Glutamine; Mediatech, Inc., Herndon Va., cat. #10-040-CM) with 10% FBS and 40 U/ml IL-2. The primary T-cells were then washed twice with PBS to remove the IL-2.
Primary T cell stimulation and IL2 ELISA: Human primary T cells (100,000 cells per well) were pre-incubated with or without test compound in Yssel's medium for 1 hour at 37° C. Cells were then stimulated by transferring them to round-bottom 96-well plates pre-coated with […] αCD3 and 5 μg/ml αCD28. For counter assay, cells were instead stimulated by adding 8× stock solutions of PMA and ionomycin in Yssels (for final concentrations of 0.5 ng/ml PMA and 0.1 uM ionomycin, both from Calbiochem). Cells were incubated at 37° C. for 24 hours before 100 μL supernatants were harvested for quantification of IL-2 by ELISA using Human IL-2 Duoset ELISA Kit from R and D Systems, Cat. # DY202E.

Row | EC50 | SMILES
1 | 100 to 500 nM | Cn1nnn(-c2cc(Nc3ncc(F)c(NC4CC5CCCN5C(C)(C)C4)n3)ccc2OC2COC2)c1=O (single isomer, unassigned) [Compound 39, 1-(5-(5-fluoro-4-(octahydro-5,5-dimethylindolizin-7-ylamino)pyrimidin-2-ylamino)-2-(oxetan-3-yloxy)phenyl)-4-methyl-1H-tetrazol-5(4H)-one]
2 | < 100 nM | CC1(C)CC(Nc2nc(Nc3cc(-n4cnnn4)c(C4CC4)cc3F)ncc2F)CC2CCCN21 (single isomer, unassigned) [Compound 54, N^2-(4-cyclopropyl-2-fluoro-5-(1H-tetrazol-1-yl)phenyl)-5-fluoro-N^4-(octahydro-5,5-dimethylindolizin-7-yl)pyrimidine-2,4-diamine]
3 | 100 to 500 nM | Cn1nnn(-c2cc(Nc3ncc(F)c(N[C@@H]4C[C@@H]5CCCN5C(C)(C)C4)n3)ccc2OC2CCOCC2)c1=O (stereo in doubt) [Compound 52, 1-(5-(5-fluoro-4-(octahydro-5,5-dimethylindolizin-7-ylamino)pyrimidin-2-ylamino)-2-(tetrahydro-2H-pyran-4-yloxy)phenyl)-4-methyl-1H-tetrazol-5(4H)-one]
4 | 500 to 1000 nM | Cn1nnn(-c2cc(Nc3ncc(F)c(N[C@H]4C[C@H]5CCCN5C(C)(C)C4)n3)c(F)cc2C2CC2)c1=O [Compound 18, 1-(5-(4-((7S,8aR)-Octahydro-5,5-dimethylindolizin-7ylamino)-5-fluoropyrimidin-2-ylamino)-2-cyclopropyl-4-fluorophenyl)-4-methyl-1H-tetrazol-5(4H)-one]
5 | 100 to 500 nM | COc1cc(F)c(Nc2ncc(F)c(N[C@@H]3C[C@@H]4CCCN4C(C)(C)C3)n2)cc1-n1nnn(C)c1=O [Compound 22, 1-(5-(4-((7R,8aS)-5,5-dimethyl-octahydroindolizin-7-ylamino)-5-fluoropyrimidin-2-ylamino)-4-fluoro-2-methoxyphenyl)-4-methyl-1H-tetrazol-5(4H)-one]
6 | < 100 nM | Cn1nnn(-c2cc(Nc3ncc(F)c(NC4CC5CCCN5C(C)(C)C4)n3)ccc2OC2COC2)c1=O (stereo not drawn) [Compound 40, 1-(5-(5-fluoro-4-(octahydro-5,5-dimethylindolizin-7-ylamino)pyrimidin-2-ylamino)-2-(oxetan-3-yloxy)phenyl)-4-methyl-1H-tetrazol-5(4H)-one]
7 | 100 to 500 nM | CC1(C)CC(Nc2nc(Nc3ccc(OC4CCOCC4)c(C#N)c3)ncc2F)CC2CCCN21 (stereo not drawn) [Compound 41, 5-(5-fluoro-4-(octahydro-5,5-dimethylindolizin-7-ylamino)pyrimidin-2-ylamino)-2-(tetrahydro-2H-pyran-4-yloxy)benzonitrile]
8 | 1000 to 10000 nM | Cn1nnn(-c2cc(Nc3ncc(F)c(N[C@H]4C[C@@H]5CC(F)(F)CN5C(C)(C)C4)n3)c(F)cc2C2CC2)c1=O [Compound 42, 1-(5-(4-((7S,8aR)-2,2-difluoro-octahydro-5,5-dimethylindolizin-7-ylamino)-5-fluoropyrimidin-2-ylamino)-2-cyclopropyl-4-fluorophenyl)-4-methyl-1H-tetrazol-5(4H)-one]
9 | 1000 to 10000 nM | CC1(C)C[C@@H](Nc2nc(Nc3cc(-n4cnnn4)c(C4CC4)cc3F)ncc2F)C[C@@H]2CC(F)(F)CN21 [Compound 43, N^2-(4-cyclopropyl-2-fluoro-5-(1H-tetrazol-1-yl)phenyl)-5-fluoro-N^4-((7S,8aR)-2,2-difluoro-octahydro-5,5-dimethylindolizin-7-yl)pyrimidine-2,4-diamine]
10 | 1000 to 10000 nM | Cc1ccc(Nc2ncc(F)c(N[C@H]3C[C@@H]4CC(F)(F)CN4C(C)(C)C3)n2)cc1C#N [Compound 44, 5-(4-((7S,8aR)-2,2-difluoro-octahydro-5,5-dimethylindolizin-7-ylamino)-5-fluoropyrimidin-2-ylamino)-2-methylbenzonitrile]

Same assay, conditions: human primary T cells stimulated with αCD3 and αCD28, 24 hours

Row | EC50 | SMILES
11 | 100 to 500 nM | CC1(C)CC(Nc2nc(Nc3cc(-n4cnnn4)c(C4CC4)cc3F)ncc2F)CC2CCCN21 (single isomer, unassigned) [Compound 55, N^2-(4-cyclopropyl-2-fluoro-5-(1H-tetrazol-1-yl)phenyl)-5-fluoro-N^4-(octahydro-5,5-dimethylindolizin-7-yl)pyrimidine-2,4-diamine]
12 | 1000 to 10000 nM | CC1(C)CC(Nc2nc(Nc3ccc(O[C@@H]4CCOC4)c(C#N)c3)ncc2F)CC2CCCN21 (single isomer, unassigned) [Compound 58]
13 | 100 to 500 nM | CC1(C)CC(Nc2nc(Nc3ccc(O[C@@H]4CCOC4)c(C#N)c3)ncc2F)CC2CCCN21 (single isomer, unassigned) [Compound 59]
14 | 500 to 1000 nM | CC1(C)CC(Nc2nc(Nc3ccc(O[C@H]4CCOC4)c(C#N)c3)ncc2F)CC2CCCN21 (single isomer, unassigned) [Compound 61]
15 | 100 to 500 nM | CC1(C)CC(Nc2nc(Nc3ccc(O[C@H]4CCOC4)c(C#N)c3)ncc2F)CC2CCCN21 (single isomer, unassigned) [Compound 62]
16 | 500 to 1000 nM | Cn1nc2n(c1=O)-c1cc(Nc3ncc(F)c(N[C@@H]4C[C@@H]5CCCN5C(C)(C)C4)n3)ccc1OCC2(C)O (single isomer, unassigned) [Compound 294]
17 | 100 to 500 nM | CC1(C)Oc2ccc(Nc3ncc(F)c(N[C@H]4C[C@H]5CCCN5C(C)(C)C4)n3)cc2-n2nnnc21 [Compound 1, N2-(4,4-dimethyl-4H-benzo[b]tetrazolo[1,5-d][1,4]oxazin-8-yl)-5-fluoro-N4-(octahydro-5,5-dimethylindolizin-7-amine)pyrimidine-2,4-diamine]
18 | < 100 nM | CC1(C)Oc2ccc(Nc3ncc(F)c(N[C@@H]4C[C@H]5CCCN5C(C)(C)C4)n3)cc2-n2nnnc21 [Compound 2, N2-(4,4-dimethyl-4H-benzo[b]tetrazolo[1,5-d][1,4]oxazin-8-yl)-5-fluoro-N4-(octahydro-5,5-dimethylindolizin-7-amine)pyrimidine-2,4-diamine]
19 | 1000 to 10000 nM | CC1(C)Oc2ccc(Nc3ncc(F)c(N[C@@H]4C[C@@H]5CCCN5C(C)(C)C4)n3)cc2-n2nnnc21 [Compound 4, N2-(4,4-dimethyl-4H-benzo[b]tetrazolo[1,5-d][1,4]oxazin-8-yl)-5-fluoro-N4-(octahydro-5,5-dimethylindolizin-7-amine)pyrimidine-2,4-diamine]
20 | 100 to 500 nM | CC1(C)Oc2c(F)cc(Nc3ncc(F)c(NC4CC5CCCN5C(C)(C)C4)n3)cc2-n2nnnc21 (stereo not drawn) [Compound 5]
21 | 100 to 500 nM | CC(C)N1CCC(Oc2ccc(Nc3ncc(F)c(NC4CC5CCCN5C(C)(C)C4)n3)cc2OC(F)F)CC1 (stereo not drawn) [Compound 6, (R/S, S/R, R/R, S/S)-N^2-(4-(1-isopropylpiperidin-4-yloxy)-3-(difluoromethoxy)phenyl)-5-fluoro-N^4-(octahydro-5,5-dimethylindolizin-7-yl)pyrimidine-2,4-diamine]
22 | 100 to 500 nM | Cc1ncc(Nc2ncc(F)c(NC3CC4CCCN4C(C)(C)C3)n2)cc1-n1nnnc1C (stereo not drawn) [Compound 15]
23 | 1000 to 10000 nM | Cn1nnn(-c2cc(Nc3ncc(F)c(NC4CCN5CCCC5C4)n3)c(F)cc2C2CC2)c1=O (stereo not drawn) [Compound 29]
24 | 1000 to 10000 nM | Cn1nnn(-c2cc(Nc3ncc(F)c(N[C@H]4C[C@@H]5CCC(=O)N5C(C)(C)C4)n3)c(F)cc2C2CC2)c1=O [Compound 33, 1-(5-(5-fluoro-4-(hexahydro-5,5-dimethylindolizin-3(5H)-one-7-ylamino)pyrimidin-2-ylamino)-2-cyclopropyl-4-fluorophenyl)-4-methyl-1H-tetrazol-5(4H)-one formate]
